e = 2'-O-(2-methoxyethyl) (MOE); d = 2'-deoxy (DNA)
System: Drosha mRNA
Experiment: Antisense activity by RT-qPCR, Drosha, A431 cells
Format: cell-based, Human
Experimental: A431 cells were grown at 10,000 cells per well and pre-treated with a variety of growth factors to determine if the addition of exogenous growth factors affects antisense activity or uptake of modified antisense oligonucleotides in a cell. The growth factors used were EGF, insulin growth factor (IGF), transforming growth factor (TGF), […] (VEGF), hepatocyte growth factor (HGF), platelet growth factor (PGF) and fibroblasts growth factor (FGF). To test antisense activity, cells were treated for 4 hours with a growth factor or vehicle alone, and then treated with compound no. 25690 (complementary to Drosha), compound no. 395254 (complementary to Malat1), or vehicle alone. RNA was isolated from the cells and Drosha or Malat1 RNA levels were measured by RT-qPCR. Human primer probe set 13816 (forward sequence […], designated herein as SEQ ID NO: 3; reverse sequence […], designated herein as SEQ ID NO: 4; probe sequence […], designated herein as SEQ ID NO: 5) was used to measure Drosha mRNA levels and primer probe set RTS2736 (forward sequence […], designated herein as SEQ ID NO: 6; reverse sequence […], designated herein as SEQ ID NO: 7; probe sequence TGCCACATCGCCACCCCGT, designated herein as SEQ ID NO: 8) was used to measure Malat1 RNA levels. Drosha and Malat1 RNA levels were normalized to total RNA content, as measured by RIBOGREEN®. Results are presented in the tables below as normalized RNA levels, relative to untreated control cells.
A431 cells were treated with EGF or TGF at 200 ng/mL in the presence or absence of 1 μM of the EGFR tyrosine kinase inhibitor PD174265. The cells were then treated with compound no. 25690 or compound no. 395254 as in Example 8. Total RNA was isolated and analyzed by RT-qPCR, as in Example 8.
Following siRNA treatment, cells were treated with compound no. 25690 or compound no. 395254 in the presence or absence of EGF. 16 hours after treatment with a PS-ASO with or without EGF, cells were harvested, and RNA levels were analyzed via RT-qPCR as in Example 8.

AGGAAGGAAGCTGGCGATCT (sugars from the 5' end e5 d10 e5, all phosphorothioate, methylation of C not given here) [compound 25690]
Drosha mRNA (% Control) (6250 nM, Control): 66.2 % Control
Drosha mRNA (% Control) (6250 nM, Control Luciferase siRNA): 35.2 % Control
Drosha mRNA (% Control) (6250 nM, Control Luciferase siRNA, Table 26): 47.8 % Control
Drosha mRNA (% Control) (6250 nM, Control luciferase + EGF): 40.9 % Control
Drosha mRNA (% Control) (6250 nM, Control, Table 20): 54.0 % Control
Drosha mRNA (% Control) (6250 nM, EGF): 48.4 % Control
Drosha mRNA (% Control) (6250 nM, EGF+PD174265): 64.7 % Control
Drosha mRNA (% Control) (6250 nM, EGFR siRNA-1): 41.9 % Control
Drosha mRNA (% Control) (6250 nM, EGFR siRNA-2): 39.2 % Control
Drosha mRNA (% Control) (6250 nM, EGFR siRNA-2 + EGF): 62.5 % Control
Drosha mRNA (% Control) (6250 nM, EGFR siRNA-2, Table 26): 64.8 % Control
Drosha mRNA (% Control) (6250 nM, TGF): 43.1 % Control
Drosha mRNA (% Control) (6250 nM, TGF+PD174265): 57.0 % Control
Drosha mRNA (% Control) (10000 nM, Control): 48.2 % Control
Drosha mRNA (% Control) (10000 nM, EGF): 27.7 % Control
Drosha mRNA (% Control) (10000 nM, TGF): 29.7 % Control
Drosha mRNA (% Control) (12500 nM, Control): 56.4 % Control
Drosha mRNA (% Control) (12500 nM, Control Luciferase siRNA): 29.3 % Control
Drosha mRNA (% Control) (12500 nM, Control Luciferase siRNA, Table 26): 41.0 % Control
Drosha mRNA (% Control) (12500 nM, Control luciferase + EGF): 30.9 % Control
Drosha mRNA (% Control) (12500 nM, Control, Table 20): 47.6 % Control
Drosha mRNA (% Control) (12500 nM, EGF): 40.1 % Control
Drosha mRNA (% Control) (12500 nM, EGF+PD174265): 53.6 % Control
Drosha mRNA (% Control) (12500 nM, EGFR siRNA-1): 32.4 % Control
Drosha mRNA (% Control) (12500 nM, EGFR siRNA-2): 39.1 % Control
Drosha mRNA (% Control) (12500 nM, EGFR siRNA-2 + EGF): 47.1 % Control
Drosha mRNA (% Control) (12500 nM, EGFR siRNA-2, Table 26): 49.2 % Control
Drosha mRNA (% Control) (12500 nM, TGF): 29.7 % Control
Drosha mRNA (% Control) (12500 nM, TGF+PD174265): 44.9 % Control
Drosha mRNA (% Control) (20000 nM, Control): 48.8 % Control
Drosha mRNA (% Control) (20000 nM, EGF): 25.4 % Control
Drosha mRNA (% Control) (20000 nM, TGF): 25.5 % Control
Drosha mRNA (% Control) (25000 nM, Control): 45.2 % Control
Drosha mRNA (% Control) (25000 nM, Control Luciferase siRNA): 24.0 % Control
Drosha mRNA (% Control) (25000 nM, Control Luciferase siRNA, Table 26): 37.2 % Control
Drosha mRNA (% Control) (25000 nM, Control luciferase + EGF): 27.1 % Control
Drosha mRNA (% Control) (25000 nM, Control, Table 20): 38.9 % Control
Drosha mRNA (% Control) (25000 nM, EGF): 40.1 % Control
Drosha mRNA (% Control) (25000 nM, EGF+PD174265): 51.2 % Control
Drosha mRNA (% Control) (25000 nM, EGFR siRNA-1): 29.9 % Control
Drosha mRNA (% Control) (25000 nM, EGFR siRNA-2): 35.5 % Control
Drosha mRNA (% Control) (25000 nM, EGFR siRNA-2 + EGF): 41.2 % Control
Drosha mRNA (% Control) (25000 nM, EGFR siRNA-2, Table 26): 42.3 % Control
Drosha mRNA (% Control) (25000 nM, TGF): 23.5 % Control
Drosha mRNA (% Control) (25000 nM, TGF+PD174265): 37.1 % Control
Drosha mRNA (% Control) (40000 nM, Control): 44.3 % Control
Drosha mRNA (% Control) (40000 nM, EGF): 23.6 % Control
Drosha mRNA (% Control) (40000 nM, TGF): 22.7 % Control
Drosha mRNA (% Control) (50000 nM, Control): 40.2 % Control
Drosha mRNA (% Control) (50000 nM, Control Luciferase siRNA): 22.4 % Control
Drosha mRNA (% Control) (50000 nM, Control Luciferase siRNA, Table 26): 33.1 % Control
Drosha mRNA (% Control) (50000 nM, Control luciferase + EGF): 23.2 % Control

Source: patent US20200407717A1, “METHODS OF MODULATING ANTISENSE ACTIVITY” (Ionis Pharmaceuticals, Inc., priority 2018, published 2020)
